Target: Quinolone signal response protein (Pseudomonas aeruginosa, UniProt A0A072ZMX8)
Assay: Isothermal Titration Calorimetry (ITC)
Details: 14 °C
Description: ITC titrations were performed using an ITC200 instrument (Microcal Inc.,Malvern). DMSO stock solutions (20 mM) of fragments were diluted 1:20 (v/v) into ITC titration buffer (50 mM tricine, 2 mM MnCl2, pH = 8.5) to give a 1 mM final compound concentration at 5% (v/v) DMSO. Aliquots of the same buffer batch (stored at […]) were used as for protein storage to avoid a buffer mismatch. H6PqsE was diluted in the same buffer to 100 μM, and DMSO concentration was adjusted to 5% (v/v). Titrations were carried out at 298 K using 19 injections of 2 μL every 180 s. Areas under the peaks were integrated. Baseline peaks at the endof a titration accounting for the heat of dilution and mixing were subtracted from the measurement. Data were fitted to a 1:1 binding model (MicroCal Origin 7 software).

Chain of Quinolone signal response protein (A0A072ZMX8 whole entry): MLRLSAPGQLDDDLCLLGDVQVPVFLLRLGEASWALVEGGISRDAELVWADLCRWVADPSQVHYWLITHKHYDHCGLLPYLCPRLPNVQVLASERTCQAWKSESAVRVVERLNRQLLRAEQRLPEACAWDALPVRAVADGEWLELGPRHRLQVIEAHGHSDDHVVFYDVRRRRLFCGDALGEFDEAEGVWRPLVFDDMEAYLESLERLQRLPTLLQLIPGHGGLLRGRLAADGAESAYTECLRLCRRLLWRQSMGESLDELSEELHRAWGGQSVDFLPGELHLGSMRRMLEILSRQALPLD

Structure (SMILES) | Kd
Cc1ccsc1C(=O)O [AC30341 (3)] | 19.6 µM
O=C(O)c1ccccc1-c1cccnc1 [CC41801 (1)] | 0.9 µM

— BindingDB's records for doi:10.1021/acschembio.6b00156 (Helmholtz-Institute For Pharmaceutical Research Saarland, 2016)
